Laboratory results from ChEMBL document CHEMBL1141121, “Selective inhibition of MCF-7(piGST) breast tumors using glutathione transferase-derived 2-methylene-cycloalkenones” (J Med Chem, 2005).

Tests used:
Assay type in all cases: cell-based
[1] = molecular target: T1, Glutathione S-transferase P (Homo sapiens, UniProt P09211); experiment: Inhibitory concentration against GSTP1-1 over-expressed in MCF-7piGST cells
Target sequence in this assay (P09211 whole entry): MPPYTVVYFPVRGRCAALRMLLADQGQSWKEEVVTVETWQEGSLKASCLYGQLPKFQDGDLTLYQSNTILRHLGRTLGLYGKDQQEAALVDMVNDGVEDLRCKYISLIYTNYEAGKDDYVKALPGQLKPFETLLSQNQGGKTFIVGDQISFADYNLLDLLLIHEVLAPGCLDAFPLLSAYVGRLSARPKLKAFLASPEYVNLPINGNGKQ

[2] = molecular target: T1, Glutathione S-transferase P; experiment: Inhibitory concentration against GSTP1-1 over-expressed in MCF7wt cells
Target sequence in this assay (P09211 whole entry): as above

[3] = molecular target: T1, Glutathione S-transferase P; experiment: Ratio between MCF7wt to MCF-7piGST cells overexpressing in GSTP1-1
Target sequence in this assay (P09211 2-210 limits assumed): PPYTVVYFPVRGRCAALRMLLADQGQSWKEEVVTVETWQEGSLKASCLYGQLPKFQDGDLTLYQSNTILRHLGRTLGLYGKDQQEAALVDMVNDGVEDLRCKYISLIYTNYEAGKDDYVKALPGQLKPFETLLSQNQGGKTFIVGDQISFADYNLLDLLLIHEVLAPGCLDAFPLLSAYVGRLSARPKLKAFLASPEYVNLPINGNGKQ

| IC50 [1] | IC50 [2] | Ratio [3] | SMILES |
| --- | --- | --- | --- |
| 2.6 µM | 10.8 µM | 4.2 | C/C=C/OC(=O)CC1=CCCCCC1=O |
| 13.2 µM | 29.6 µM | 2.2 | C/C=C/C(=O)OCC1=CCCCC1=O |
